Laboratory results: patent publication US20240238327A1 (priority 2021, published 2024)

Legend:
[1] = test system: Raw 264.7 cells; test: plasma membrane cholesterol extraction from fixed cells; assay type: cell-based; details: for plasma membrane cholesterol extraction: monomers, 20 mg/mL in PBS, 37° C., 1 hour, fixed cells
Protocol: Raw 264.7 cells were maintained in a Dulbecco's modified Eagle's medium (DMEM) containing 10% fetal bovine serum (FBS) and 1% penicillin/streptomycin. In order to suppress endocytosis of cyclodextrin and induce only plasma membrane cholesterol extraction, 1×10^5 cells were fixed at room temperature for 20 minutes using formaldehyde, and then cyclodextrin was dissolved in PBS in a concentration of 20 mg/mL and treated to the cells at 37° C. for 1 hour. The treated PBS was collected, centrifuged at a rate of 14,000 g for 30 minutes to remove cell debris and microvesicles, and then the cholesterol concentration in the supernatant was quantified using a Cholesterol Quantification Kit (Sigma Aldrich). The plasma membrane cholesterol extraction of gamma-cyclodextrins and polymers thereof was compared with alpha and beta-cyclodextrins and polymers thereof. […] The plasma membrane cholesterol extraction induced by gamma-cyclodextrins and polymers thereof was compared with alpha- and beta-cyclodextrins and polymers thereof, and the results are shown in FIG. 5.

[2] = test system: Raw 264.7 cells; test: cytotoxicity (CCK-8 cell viability); assay type: cell-based; details: monomers, 20 mg/mL
Protocol: Raw 264.7 cells were maintained in a DMEM containing 10% FBS and 1% penicillin/streptomycin. 5×10^4 cells were dispensed in each well of a 96-well plate, and after 24 hours, the cells were treated with cyclodextrin at a concentration of 20 mg/mL. After culturing the cells at 37° C. in 5% CO2, a CCK-8 agent was added, 10 μL at a time.

[3] = cholesterol crystal dissolution; assay type: physicochemical; details: monomers; 20 mg/mL, 37° C., 2 hours; NBD-cholesterol fluorescence
Protocol: First, in order to form cholesterol crystals, a solution including 2 mg/ml of cholesterol and 0.2 mg/ml of NBD-cholesterol in ethanol was prepared, and then distilled water (30% v/v) was added to the solution to induce crystallization. The solution was completely dried under vacuum, resuspended in PBS, and sonicated for 30 seconds. 20 μL of 5 mM cholesterol was mixed with 300 μL of 20 mg/mL cyclodextrin and reacted at 37° C. for 2 hours. After centrifuging the mixture at 14,000 g for 30 minutes to remove undissolved cholesterol crystals, the supernatant was collected and the fluorescence of dissolved NBD-cholesterol was measured at 480 nm/520 nm, and the cholesterol crystal dissolution levels depending on the molecular weights of hydroxypropyl-alpha-, -beta-, -gamma-cyclodextrin monomers and polymers were confirmed.

[4] = systemic toxicity (body weight, behavioral score, organ histology); details: 10 g/kg subcutaneous; one day after administration
Protocol: (§1) To assess systemic toxicity, cyclodextrin dissolved in PBS was subcutaneously injected in an amount of 10 g/kg body weight to wild-type C57/BL6 mice. […] The body weight and behavioral characteristics of the mice were observed every day for a week. The behavioral characteristics of the mice were measured according to the criteria presented in Endpoints for Mouse Abdominal Tumor Models: Refinement of Current Criteria. In order to confirm toxicity to major organs, the mice were sacrificed 7 days later, and H&E staining was performed. In order to assess ototoxicity, the mice were sacrificed 7 days later, and the outer hair cells in the cochlea were quantified through microscopic observation. […] The brain weight of the mice was calculated to be about 0.4 g according to the age, and as a result, 2 mg of cyclodextrin was dissolved in 10 μL of PBS and injected. After 7 days, the outer hair cells in the cochlea were quantified through microscopic observation.
(§2) Also, the histological analysis of the major organs of the mice after one week is shown in FIG. 24, and ototoxicity of the C57BL/6 mice was evaluated one week after subcutaneously injecting 10 g/kg of cyclodextrin and intraventricularly injecting 5 g/kg brain weight of cyclodextrin. […]

[5] = test system: Raw 264.7 cells; test: intracellular cholesterol excretion in macrophages that had taken up fluorescent cholesterol; assay type: cell-based; details: 5 mg/mL, 48 hours; PBS control set to 100%
Protocol: Raw 264.7 cells were dispensed at 5×10^4 cells per well of a 96-well plate, and after 24 hours, the cells were treated with cholesterol crystals at a concentration of 50 μM. […] The cells were cultured at 37° C. in 5% CO2 for 48 hours, and intracellular cholesterol fluorescence was analyzed using a fluorescence microscope. In addition, to investigate the effect of cyclodextrin on intracellular cholesterol metabolism, the amount of ATP-binding cassette transporter (ABCA1) involved in cholesterol excretion was quantified using a cell flow rate analyzer, and cholesteryl ester, which is a storage form of cholesterol, was quantified.

[6] = test system: outer hair cells in the cochlea; details: 5 g/kg brain weight intraventricular; one week after injection
Protocol: as §1, §2

[7] = test system: whole blood from wild-type C57/BL6 mice; test: hemolytic activity; assay type: cell-based; details: monomers; 50 mg/ml in PBS, 37° C., 1 hour
Protocol: For hemolytic activity analysis, 30 μL of whole blood from wild-type C57/BL6 mice was mixed with 300 μL of a PBS solution containing 50 mg/ml of cyclodextrin and reacted at 37° C. for 1 hour. After centrifuging the mixture at 3,000 g for 5 minutes, the absorbance at 540 nm was measured using the supernatant.

Compound	plasma membrane cholesterol extraction [1]	cell viability [2]	cholesterol crystal dissolution [3]	lowest behavioral score, average [4]	level of plasma membrane cholesterol extraction (in words) ([1]; 20 mg/mL, compared with alpha- and beta-cyclodextrin monomers and polymers, or with the monomers)	amount of intracellular cholesterol [5]	outer hair cell survival [6]	hemolytic activity [7]
hydroxypropyl-alpha-cyclodextrin	42.8%	14.2%	21.9%					
cyclodextrin				6 points				
hydroxypropyl-gamma-cyclodextrin	5%	93.9%	12.1%		significantly low levels of cholesterol extraction	75%	69.7%	
CC(O)COC[C@H]1O[C@@H]2O[C@H]3[C@H](O)[C@@H](O)[C@@H](O[C@H]4[C@H](O)[C@@H](O)[C@@H](O[C@H]5[C@H](O)[C@@H](O)[C@@H](O[C@H]6[C@H](O)[C@@H](O)[C@@H](O[C@H]7[C@H](O)[C@@H](O)[C@@H](O[C@H]8[C@H](O)[C@@H](O)[C@@H](O[C@H]1[C@H](O)[C@H]2O)O[C@@H]8COCC(C)O)O[C@@H]7COCC(C)O)O[C@@H]6COCC(C)O)O[C@@H]5COCC(C)O)O[C@@H]4COCC(C)O)O[C@@H]3COCC(C)O (stereo partly drawn) [hydroxypropyl-beta-cyclodextrin]	45%	9.6%	32.3%			80.5%	27.5%	97.1%
